Measured values published in patent US20030166583A1, “Dermal cytochrome P450 1A inhibitors and enhancers” (priority 2002, published 2003).
“Also recorded” adds a separate entry of the source.

system: dermal CYP1A; assay: Dermal microsomal CYP1A enzymatic activity (7-ethoxyresorufin-O-deethylase), inhibition or enhancement; conditions: at certain concentration (1, 10 or 100 μM)
From the text: (§1) Nude mice were sacrificed by decapitation.
(§2) The precipitate containing the microsomes was obtained.

| Compound | inhibitory effect on dermal CYP1A activity, in words |
| --- | --- |
| C[C@@H]1O[C@@H](O[C@H]2[C@H](Oc3cc(O)c4c(c3)O[C@H](c3ccc(O)cc3)CC4=O)O[C@H](CO)[C@@H](O)[C@@H]2O)[C@H](O)[C@H](O)[C@H]1O [Narigin] | inhibition effects |
| COc1c(O)cc2oc(Oc3ccc(O)cc3)cc(=O)c2c1O [capillarisin, Capillarisin] | strong inhibitory effects |
| O=c1cc(-c2ccc(O)c(O)c2)oc2cc(O)c([C@@H]3O[C@H](CO)[C@@H](O)[C@H](O)[C@H]3O)c(O)c12 [homoorientin] | strong inhibitory effects |

same assay, conditions: at certain concentrations (1, 10 or 100 μM)

| Compound | enhancing effect on dermal CYP1A activity, in words |
| --- | --- |
| C[C@@H]1O[C@@H](O[C@H]2[C@H](Oc3cc(O)c4c(c3)O[C@H](c3ccc(O)cc3)CC4=O)O[C@H](CO)[C@@H](O)[C@@H]2O)[C@H](O)[C@H](O)[C@H]1O [Narigin] | enhancing effects; also recorded: strongest enhancing effect |

same assay, conditions: compound 1 μM

| Compound | enhancement of dermal CYP1A activity |
| --- | --- |
| C[C@@H]1O[C@@H](O[C@H]2[C@H](Oc3cc(O)c4c(c3)O[C@H](c3ccc(O)cc3)CC4=O)O[C@H](CO)[C@@H](O)[C@@H]2O)[C@H](O)[C@H](O)[C@H]1O [Narigin] | about 50% |

same assay, conditions: compound 1 μM; skin microsomes; mean of at least 3 repeats

| Compound | dermal CYP1A activity (% of control group) [%] |
| --- | --- |
| C[C@@H]1O[C@@H](O[C@H]2[C@H](Oc3cc(O)c4c(c3)O[C@H](c3ccc(O)cc3)CC4=O)O[C@H](CO)[C@@H](O)[C@@H]2O)[C@H](O)[C@H](O)[C@H]1O [Narigin] | 149.99 |

same assay, conditions: compound 10 μM; skin microsomes; mean of at least 3 repeats

| Compound | dermal CYP1A activity (% of control group) [%] |
| --- | --- |
| C[C@@H]1O[C@@H](O[C@H]2[C@H](Oc3cc(O)c4c(c3)O[C@H](c3ccc(O)cc3)CC4=O)O[C@H](CO)[C@@H](O)[C@@H]2O)[C@H](O)[C@H](O)[C@H]1O [Narigin] | 103.30 |

same assay, conditions: compound 100 μM

| Compound | inhibition of dermal CYP1A activity |
| --- | --- |
| C[C@@H]1O[C@@H](O[C@H]2[C@H](Oc3cc(O)c4c(c3)O[C@H](c3ccc(O)cc3)CC4=O)O[C@H](CO)[C@@H](O)[C@@H]2O)[C@H](O)[C@H](O)[C@H]1O [Narigin] | about 23% |

same assay, conditions: compound 100 μM; skin microsomes; mean of at least 3 repeats

| Compound | dermal CYP1A activity (% of control group) [%] |
| --- | --- |
| C[C@@H]1O[C@@H](O[C@H]2[C@H](Oc3cc(O)c4c(c3)O[C@H](c3ccc(O)cc3)CC4=O)O[C@H](CO)[C@@H](O)[C@@H]2O)[C@H](O)[C@H](O)[C@H]1O [Narigin] | 77.31 |

system: CYP1A; assay: in vitro; conditions: nude, mouse, pH 7.8
From the text: as §1, §2

| Compound | activity at 10 min, 1 µM [%] | activity at 10 min, 10 µM [%] | activity at 10 min, 100 µM [%] | inhibition at 10 min, 1 µM [%] | inhibition at 10 min, 100 µM [%] |
| --- | --- | --- | --- | --- | --- |
| CC(=O)OCCCc1ccccc1 [3-Phenyl propyl acetate, 3-phenylpropyl acetate] | 28.3 | 89.4 | 85 | ~72 |  |
| C=CC(=C)CCC=C(C)C [Beta-Myrcene] | 101 | 78.2 | 73.6 |  | ~26 |
| C=C[C@H]1[C@H](O[C@@H]2O[C@H](CO)[C@@H](O)[C@H](O)[C@H]2O)OC=C2C(=O)OCC[C@]21O [Swertiamarin] | 98.5 | 96.5 | 105 |  |  |
| O=C/C=C/c1ccccc1 [Trans-cinnamaldehyde] |  |  |  |  | ~80 |

same assay, conditions: nude, mouse, pH 7.8, dermal CYP1A activity (% of control group)

| Compound | activity at 10 min, 1 µM [%] | activity at 10 min, 10 µM [%] | activity at 10 min, 100 µM [%] |
| --- | --- | --- | --- |
| O=c1c(-c2ccc(O)cc2)coc2cc(O)ccc12 [Daidzein] | 77.5 | 71.7 | 77.2 |
| O=C(O)c1cc(O)c(O)c(O)c1 [Gallic acid] | 102 | 107 | 88.2 |
| O=c1cc(-c2ccc(O)c(O)c2)oc2cc(O)cc(O)c12 [Luteolin] | 59.1 | 19.4 | 10.4 |

same assay, conditions: nude, mouse, pH 7.8, inhibition of dermal CYP1A activity

| Compound | inhibition at 10 min, 10 µM [%] | inhibition at 10 min, 100 µM [%] |
| --- | --- | --- |
| O=c1c(-c2ccc(O)cc2)coc2cc(O)ccc12 [Daidzein] | ~28 |  |
| O=C(O)c1cc(O)c(O)c(O)c1 [Gallic acid] |  | ~12 |
| O=c1cc(-c2ccc(O)c(O)c2)oc2cc(O)cc(O)c12 [Luteolin] |  | ~90 |

system: liver CYP1A; assay: Liver microsomal CYP1A enzymatic activity, inhibition or enhancement; conditions: at certain concentration (1, 10 or 100 μM)
Description: (§3) Nude mice were sacrificed by decapitation. The skin and liver were immediately removed and kept in ice bath or 4° C. […] Connective tissue, blood, and fat were carefully removed from the tissue. Excess water content was removed from the homogenized tissue by tissue papers before the tissue was weighed.
(§4) The suspension of homogenized tissue in potassium chloride solution was transferred into a Teflon pestle-glass homogenizer for homogenization for six (6) times. Then, potassium chloride solution was added into the homogenized suspension to bring the volume to about four (4) times of the homogenized suspension. The diluted suspension was 5 transferred into a centrifuge tube and centrifuged at 4° C., 9000 xg, for twenty (20) minutes. The supernatant containing microsomes from skin or liver tissue and other soluble substance were removed and the volume of the supernatant was brought up to four (4) times of the weight of the tissue by adding potassium chloride solution. The diluted supernatant was transferred into a centrifuge tube and centrifuged at 4° C., 100,000 xg, for one (1) hour (Beckman L8-80M). The precipitate containing the microsomes was obtained. Potassium chloride solution was added into the precipitate to bring the volume up to four (4) times of the weight of the tissue, and the suspension was centrifuged at 4° C., 100,000 xg for one (1) hour, to obtain the washed microsomes, which were stored at −78° C. in 0.1M KH2PO4-K2HPO4 buffer (pH=7.4).
(§5) The enzymatic activity of CYP1A was determined based on the activity of 7-ethoxyresorufin-O-deethylase (i.e., for CYP1A) and 7-methoxyresorufin-O-demethylase (i.e., CYP1A2). […] Except for the blank group, the reaction was triggered by adding 0.54 μM NADPH. In the test tube (16×100 mm), the reaction was carried out for ten (10) minutes at constant temperature (37° C.) with vibration and without light Methanol 2.5 ml was added into the reaction mixture to stop the reaction. Protein precipitate was removed from the reaction mixture by centrifuging the reaction mixture at 180 xg for ten (10) minutes. The supernatant was tested for florescent intensity with 550 nm as the excitation wavelength and 585 nm the emission wavelength. The florescent intensity was compared with 0.01 μM-0.1 μM standard Rhodamine B solution to obtain the reading of the CYP1A enzyme activity.

| Compound | enhancing effect on liver CYP1A activity, in words | inhibitory effect on liver CYP1A activity, in words |
| --- | --- | --- |
| CC(=O)OCCCc1ccccc1 [3-Phenyl propyl acetate, 3-phenylpropyl acetate] | enhancing effect; also recorded: most enhancing effect |  |
| C=CC(=C)CCC=C(C)C [Beta-Myrcene] | enhancing effect | inhibitory effects |
| C[C@@H]1O[C@@H](O[C@H]2[C@H](Oc3cc(O)c4c(c3)O[C@H](c3ccc(O)cc3)CC4=O)O[C@H](CO)[C@@H](O)[C@@H]2O)[C@H](O)[C@H](O)[C@H]1O [Narigin] | enhancing effect; also recorded: most enhancing effect |  |
| O=C(O)/C=C/c1ccc(O)cc1O [Umbellic acid] | enhancing effect |  |

same assay, conditions: at certain concentration (1, 10 or 100 μM); listed as 3-phenylpryl acetate

| Compound | enhancing effect on liver CYP1A activity, in words |
| --- | --- |
| CC(=O)OCCCc1ccccc1 [3-Phenyl propyl acetate, 3-phenylpropyl acetate] | enhancing effect |

same assay, conditions: compound 1 μM; liver microsomes

| Compound | liver CYP1A activity (% of control group) [%] |
| --- | --- |
| C[C@@H]1O[C@@H](O[C@H]2[C@H](Oc3cc(O)c4c(c3)O[C@H](c3ccc(O)cc3)CC4=O)O[C@H](CO)[C@@H](O)[C@@H]2O)[C@H](O)[C@H](O)[C@H]1O [Narigin] | 138.88 |

same assay, conditions: compound 10 μM; liver microsomes

| Compound | liver CYP1A activity (% of control group) [%] |
| --- | --- |
| C[C@@H]1O[C@@H](O[C@H]2[C@H](Oc3cc(O)c4c(c3)O[C@H](c3ccc(O)cc3)CC4=O)O[C@H](CO)[C@@H](O)[C@@H]2O)[C@H](O)[C@H](O)[C@H]1O [Narigin] | 119.79 |

same assay, conditions: compound 100 μM

| Compound | enhancing effect on liver CYP1A activity |
| --- | --- |
| C[C@@H]1O[C@@H](O[C@H]2[C@H](Oc3cc(O)c4c(c3)O[C@H](c3ccc(O)cc3)CC4=O)O[C@H](CO)[C@@H](O)[C@@H]2O)[C@H](O)[C@H](O)[C@H]1O [Narigin] | about 21% |

same assay, conditions: compound 100 μM; liver microsomes

| Compound | liver CYP1A activity (% of control group) [%] |
| --- | --- |
| C[C@@H]1O[C@@H](O[C@H]2[C@H](Oc3cc(O)c4c(c3)O[C@H](c3ccc(O)cc3)CC4=O)O[C@H](CO)[C@@H](O)[C@@H]2O)[C@H](O)[C@H](O)[C@H]1O [Narigin] | 120.55 |

system: CYP1A; assay: as above; conditions: nude, mouse, liver microsomes, pH 7.8, probe 7-ethoxyresorufin
Description: as §3, §4, §5

| Compound | activity at 10 min, 1 µM [%] | activity at 10 min, 10 µM [%] | activity at 10 min, 100 µM [%] |
| --- | --- | --- | --- |
| CC(=O)OCCCc1ccccc1 [3-Phenyl propyl acetate, 3-phenylpropyl acetate] | 151 | 143 | 157 |
| C=CC(=C)CCC=C(C)C [Beta-Myrcene] | 82 | 98 | 100 |
| O=c1c(-c2ccc(O)cc2)coc2cc(O)ccc12 [Daidzein] | 109 | 112 | 135 |
| O=C(O)c1cc(O)c(O)c(O)c1 [Gallic acid] |  | 123 | 105 |
| O=c1cc(-c2ccc(O)c(O)c2)oc2cc(O)cc(O)c12 [Luteolin] | 115 | 104 | 33.4 |
| O=C(O)/C=C/c1ccc(O)cc1O [Umbellic acid] |  |  | 121 |
